Measured values as given in the NIST ThermoML archive (doi:10.1016/j.jct.2009.08.002).
Numbers after ± are expanded uncertainties.

Experiment: molar heat capacity at constant pressure; xn = mol fraction of the nth substance listed
Conditions: Liquid, Large sample (1 g) DSC

CCCCCCCC[n+]1ccn(C)c1.F[B-](F)(F)F [1-methyl-3-octylimidazolium tetrafluoroborate] + CC#N
molar heat capacity at constant pressure [J/K/mol]
Conditions	x1 = 0.0359	x1 = 0.1135	x1 = 0.1694	x1 = 0.2341	x1 = 0.3023	x1 = 0.4285	x1 = 0.5437	x1 = 0.6829	x1 = 0.8425	x1 = 1
283.15 K	103.7 ± 1.6	133.5 ± 2.1	155.3 ± 2.4	181 ± 2.8	208.3 ± 3.2	259.1 ± 4	305.8 ± 4.7	362.2 ± 5.6	426.5 ± 6.6	489.8 ± 7.6
288.15 K	104 ± 1.6	133.9 ± 2.1	155.9 ± 2.4	181.7 ± 2.8	209.1 ± 3.2	260.4 ± 4	307.3 ± 4.8	364.1 ± 5.6	428.9 ± 6.6	492.6 ± 7.6
293.15 K	104.4 ± 1.6	134.4 ± 2.1	156.5 ± 2.4	182.4 ± 2.8	210 ± 3.3	261.7 ± 4.1	308.9 ± 4.8	366 ± 5.7	431.3 ± 6.7	495.4 ± 7.7
298.15 K	104.8 ± 1.6	135 ± 2.1	157.1 ± 2.4	183.2 ± 2.8	210.9 ± 3.3	263 ± 4.1	310.5 ± 4.8	368 ± 5.7	433.7 ± 6.7	498.3 ± 7.7
303.15 K	105.2 ± 1.6	135.5 ± 2.1	157.8 ± 2.5	184 ± 2.9	211.9 ± 3.3	264.3 ± 4.1	312.2 ± 4.8	370.1 ± 5.7	436.2 ± 6.8	501.2 ± 7.8
308.15 K	105.6 ± 1.6	136.1 ± 2.1	158.5 ± 2.5	184.9 ± 2.9	212.9 ± 3.3	265.7 ± 4.1	313.9 ± 4.9	372.2 ± 5.8	438.7 ± 6.8	504.1 ± 7.8
313.15 K	106.1 ± 1.7	136.7 ± 2.1	159.2 ± 2.5	185.7 ± 2.9	213.9 ± 3.3	267.1 ± 4.1	315.7 ± 4.9	374.4 ± 5.8	441.3 ± 6.8	507.1 ± 7.9
318.15 K	106.5 ± 1.7	137.4 ± 2.1	159.9 ± 2.5	186.6 ± 2.9	215.1 ± 3.3	268.5 ± 4.2	317.5 ± 4.9	376.7 ± 5.8	443.9 ± 6.9	510.2 ± 7.9
323.15 K	107 ± 1.7	138 ± 2.1	160.7 ± 2.5	187.5 ± 2.9	216.2 ± 3.4	269.9 ± 4.2	319.3 ± 4.9	379 ± 5.9	446.6 ± 6.9	513.3 ± 8
